Legend:
Assay type in all cases: cell-based
[1] = system: HIV WT integrase; assay: PhenoScreen (Phenosense) assay, single-round luciferase pseudotyped HIV; conditions: Human immunodeficiency virus 1, read-out: Activity, Phenosense assay, WT
Source text: (§1) Monogram Bioscience' PhenoScreen assay allows the evaluation of integrase inhibitors for activity against a variety of HIV variants. The assay uses virus generated from 2 DNA constructs; one containing the HIV LTR, gag and pol regions, as well as a luciferase reporter gene in place of the viral envelope genes, and a second DNA construct containing the amphotrophic murine leukemia virus (A-MLV) envelope gene required to pseudotype virions and render them capable of entry into a target cell. Viruses generated using these constructs by transfection into a producer cell line such as 293T are capable of one-round of infection only. Successful integration events are directly proportional to the levels of luciferase expression 48 h after infection.
(§2) The viral variants chosen by the present inventors to screen integration inhibitors consist of mutations within the viral integrase enzyme known to confer resistance to a number of known integration inhibitors published in the literature. In particular, the viral variants containing the Q148H/G140S double mutation in integrase, and the N155H/E92Q double mutation in integrase, represent two of the more common viruses identified to arise in patients that are failing treatment with Isentress (Raltegravir, MK-0518).

[2] = system: HIV variant E92Q/N155H integrase; assay: as above; conditions: for EC50: Human immunodeficiency virus 1, read-out: Activity, Phenosense assay, E92Q/N155H
Source text: as §1, §2

[3] = system: HIV variant G140S/Q148H integrase; assay: as above; conditions: Human immunodeficiency virus 1, read-out: Activity, Phenosense assay, G140S Q148H
Source text: as §1, §2

[4] = system: HIV variant T125K/F121Y integrase; assay: as above; conditions: for EC50: Human immunodeficiency virus 1, read-out: Activity, Phenosense assay, T125K F121Y
Source text: as §1, §2

[5] = system: HIV variant T661/S153Y integrase; assay: as above; conditions: Human immunodeficiency virus 1, read-out: Activity, Phenosense assay, T661 S153Y
Source text: as §1, §2

[6] = system: HIV variant Y143R integrase; assay: as above; conditions: for EC50: Human immunodeficiency virus 1, read-out: Activity, Phenosense assay, Y143R
Source text: as §1, §2

[7] = system: HIV-1 reporter virus, N155H/E92Q (NHEQ) integrase; assay: Luciferase reporter virus infectivity assay in 293T cells; conditions: Human immunodeficiency virus 1, HEK-293T, 48 h, read-out: Luciferase assay EC50, NHEQ
Source text: (§3) Infectivity assays using reporter viruses derived from lentiviral vectors capable of a single round of infection were used to determine the activity (EC50) of compounds. The DNA used to generate viruses for infection was the full-length HIV-1 genome which had been envelope-deleted. In addition, a reporter gene (the firefly luciferase gene from Photinus pyralis) was cloned into the nef region of the HIV backbone for ease of assay readout. […]. Culture supernatants containing VSV-G pseudotyped virions were harvested 64 h post transfection, clarified by centrifugation to remove cell debris, and frozen at −70° C. until use.
(§4) HIV integrase was mutated within a shuttle vector (pGEM) containing the majority of the HIV-1 gag and pol sequence using site-directed mutagenesis to generate sequences that are known to confer resistance to published integrase inhibitors. These include but are not limited to mutations such as Q148H/G140S (in table #QHGS), N155H/E92Q (in table #NHEQ), F121Y/T124K (in table FYTK), Y143R (in table #Y143R) and the triple mutant Q148K/G140A/E138A. (in table#QKGAEA). The mutated integrase coding region within the shuttle vector was sequence verified, and then exchanged for the wild-type (WT) coding sequence in the reporter virus DNA backbone.
(§5) 293T cells were plated out at 12000 cells per well in CellView 96-well cell culture plates (Invitrogen) 16 h prior to compound addition. Compounds were preincubated with cells for 4 h at 37° C. prior to the addition of virus sufficient to generate approximately 10000 Luciferase light units (as measured by the Victor Wallace luminometer) upon assaying using the Bright-Glo™ reagent (Promega) according to the manufacturer's instructions at 48 h post infection.

[8] = system: HIV-1 reporter virus, Q148H/G140S (QHGS) integrase; assay: as above; conditions: Human immunodeficiency virus 1, HEK-293T, 48 h, read-out: Luciferase assay EC50, QHGS
Source text: as §3, §4, §5

[9] = system: HIV-1 reporter virus, Q148K/G140A/E138A (QKGAEA) integrase; assay: as above; conditions: Human immunodeficiency virus 1, HEK-293T, 48 h, read-out: Luciferase assay EC50, QKGAEA
Source text: as §3, §4, §5

[10] = system: HIV-1 reporter virus, wild-type (WT) integrase; assay: as above; conditions: Human immunodeficiency virus 1, HEK-293T, 48 h, read-out: Luciferase assay EC50, WT
Source text: as §3, §4, §5

[11] = system: HIV-1 reporter virus, F121Y/T124K (FYTK) integrase; assay: as above; conditions: Human immunodeficiency virus 1, HEK-293T, 48 h, read-out: Luciferase assay EC50, FYTK
Source text: as §3, §4, §5

[12] = system: HIV-1 reporter virus, Y143R integrase; assay: as above; conditions: Human immunodeficiency virus 1, HEK-293T, 48 h, read-out: Luciferase assay EC50, Y143R
Source text: as §3, §4, §5

O=c1c(O)c(-c2ncc(Cc3ccc(F)cc3)o2)nc2c(I)cc(N3CCOCC3)cn12 [Example 4, 2-[5-(4-fluoro-benzyl)-oxazol-2-yl]-3-hydroxy-9-iodo-7-morpholin-4-yl-pyrido[1,2-a]pyrimidin-4-one]
EC50 [1]: 1 to 100 nM | EC50 [2]: 1 to 100 nM | improvement in activity over comparative example 3, E92Q/N155H ([2]; footnote b, E92Q/N155H mutant): b 2-fold improvement in activity over comparative example 3 | EC50 [3]: > 10000 nM | EC50 [4]: 1 to 100 nM | improvement in activity over comparative example 3, T125K F121Y ([4]; footnote a, T125K/F121Y mutant): a 2.5-fold improvement in activity over comparative example 3 | EC50 [5]: 1 to 100 nM | EC50 [6]: 1 to 100 nM | improvement in activity over comparative example 3, Y143R ([6]; footnote a, Y143R mutant): a 2.5-fold improvement in activity over comparative example 3

O=c1c(O)c(-c2ncc(Cc3ccc(F)cc3)o2)nc2ccc(N3CCOCC3)cn12 [Example 7, 2-[5-(4-fluoro-benzyl)-oxazol-2-yl]-3-hydroxy-7-morpholin-4-yl-pyrido[1,2-a]pyrimidin-4-one]
EC50 [1]: 1 to 100 nM | EC50 [2]: 100 to 1000 nM | EC50 [3]: 1000 to 10000 nM | EC50 [4]: 100 to 1000 nM | EC50 [5]: 1 to 100 nM | EC50 [6]: 1 to 100 nM

O=c1c(O)c(-c2ncc(Cc3ccc(F)cc3)s2)nc2ccc(N3CCOCC3)cn12 [Example 41, 2-[5-(4-Fluoro-benzyl)-thiazol-2-yl]-3-hydroxy-7-morpholin-4-yl-pyrido[1,2-a]pyrimidin-4-one]
EC50 [1]: 1 to 100 nM | EC50 [2]: 100 to 1000 nM | EC50 [3]: 100 to 1000 nM | EC50 [4]: 1 to 100 nM | EC50 [5]: 1 to 100 nM | EC50 [6]: 1 to 100 nM | EC50 [7]: 1 to 100 nM | EC50 [8]: > 1000 nM | EC50 [9]: > 1000 nM | EC50 [10]: 1 to 100 nM

O=c1c(O)c(-c2ncc(Cc3ccc(Cl)c(Cl)c3)s2)nc2ccc(N3CCOCC3)cn12 [Example 42, 2-[5-(3,4-Dichloro-benzyl)-thiazol-2-yl]-3-hydroxy-7-morpholin-4-yl-pyrido[1,2-a]pyrimidin-4-one]
EC50 [1]: 100 to 1000 nM | EC50 [2]: 100 to 1000 nM | EC50 [3]: 1000 to 10000 nM | EC50 [4]: 100 to 1000 nM | EC50 [5]: 100 to 1000 nM | EC50 [6]: 100 to 1000 nM

O=c1c(O)c(-c2ncc(Cc3ccc(F)cc3)[nH]2)nc2ccc(N3CCOCC3)cn12 [Example 45, 5-(4-Fluoro-benzyl)-2-(3-hydroxy-7-morpholin-4-yl-4-oxo-4H-pyrido[1,2-a]pyrimidin-2-yl)-1H-imidazol-1-ium chloride]
EC50 [11]: 100 to 1000 nM | EC50 [7]: 100 to 1000 nM | EC50 [8]: 100 to 1000 nM | EC50 [9]: 100 to 1000 nM | EC50 [12]: 100 to 1000 nM | EC50 [10]: 1 to 100 nM

CN1CCN(c2cc(N3CCOCC3)cn3c(=O)c(O)c(-c4ncc(Cc5ccc(F)cc5)s4)nc23)S1(=O)=O [Example 99, 2-[5-(4-Fluoro-benzyl)-thiazol-2-yl]-3-hydroxy-9-(5-methyl-1,1-dioxo-1l6-[1,2,5]thiadiazolidin-2-yl)-7-morpholin-4-yl-pyrido[1,2-a]pyrimidin-4-one]
EC50 [11]: 1 to 100 nM | EC50 [7]: 1 to 100 nM | EC50 [8]: 1 to 100 nM | EC50 [9]: 100 to 1000 nM | EC50 [12]: 1 to 100 nM | EC50 [10]: 1 to 100 nM

CN1CCN(c2cc(N3CCOCC3)cn3c(=O)c(O)c(-c4ncc(Cc5ccc(F)cc5)s4)nc23)C1=O [Example 101, 2-[5-(4-Fluoro-benzyl)-thiazol-2-yl]-3-hydroxy-9-(3-methyl-2-oxo-imidazolidin-1-yl)-7-morpholin-4-yl-pyrido[1,2-a]pyrimidin-4-one]
EC50 [11]: 1 to 100 nM | EC50 [7]: 1 to 100 nM | EC50 [8]: 1 to 100 nM | EC50 [9]: 100 to 1000 nM | EC50 [12]: 1 to 100 nM | EC50 [10]: 1 to 100 nM

O=C1OCCN1c1cc(N2CCOCC2)cn2c(=O)c(O)c(-c3ncc(Cc4ccc(F)cc4)s3)nc12 [Example 103, 2-[5-(4-Fluoro-benzyl)-thiazol-2-yl]-3-hydroxy-7-morpholin-4-yl-9-(2-oxo-oxazolidin-3-yl)-pyrido[1,2-a]pyrimidin-4-one]
EC50 [11]: 1 to 100 nM | EC50 [7]: 1 to 100 nM | EC50 [8]: 1 to 100 nM | EC50 [9]: 100 to 1000 nM | EC50 [12]: 1 to 100 nM | EC50 [10]: 1 to 100 nM

O=c1c(O)c(-c2ncc(Cc3ccc(F)cc3)s2)nc2c(N3CCCS3(=O)=O)cc(N3CCOCC3)cn12 [Example 105, 9-(1,1-Dioxo-1l6-isothiazolidin-2-yl)-2-[5-(4-fluoro-benzyl)-thiazol-2-yl]-3-hydroxy-7-morpholin-4-yl-pyrido[1,2-a]pyrimidin-4-one]
EC50 [11]: 1 to 100 nM | EC50 [7]: 1 to 100 nM | EC50 [8]: 100 to 1000 nM | EC50 [9]: 100 to 1000 nM | EC50 [12]: 1 to 100 nM | EC50 [10]: 1 to 100 nM
